Results reported in PubChem BioAssay AID330 (DTP/NCI, 2004).
Where “and” joins values, the source holds several entries; their conditions need not be identical. Equal values may be shown once. Toxic doses and inconclusive results are not listed. How the source made its calls: active means survival T/C of 150% or more; inactive means T/C below 125% in these data.

Test system: P388 leukemia ip, CD2F1 mice, survival T/C
Test: NCI In Vivo Anticancer Drug Screen. Data for tumor model P388 Leukemia (intraperitoneal) in CD2F1 (CDF1) mice
Settings: endpoint: median survival time, higher = longer survival
How it was run: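 Mice carrying the transplanted tumor received test compound or vehicle. Survival was recorded in each group, and the value is the treated-group measurement divided by that of the vehicle-treated control group.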

[1] = dose: 60.0 mg/kg/injection, schedule: Q01DX005 (ip), vehicle: saline with Tween-80
[2] = dose: 120.0 mg/kg/injection, schedule: Q01DX005 (ip), vehicle: saline with Tween-80
[3] = dose: 50.0 mg/kg/injection, schedule: Q01DX009 (ip), vehicle: saline with Tween-80
[4] = dose: 100.0 mg/kg/injection, schedule: Q01DX009 (ip), vehicle: saline with Tween-80
[5] = dose: 240.0 mg/kg/injection, schedule: Q01DX005 (ip), vehicle: saline with Tween-80
[6] = dose: 200.0 mg/kg/injection, schedule: Q01DX009 (ip), vehicle: saline with Tween-80

Measured: T/C

CC1CCC2(C)C(CC(O)[C@H](O)C2(C)O)C1(C)CCc1ccoc1 (some centres not stated)
inactive: dose: 3.5 mg/kg/injection, schedule: Q01DX005 (ip), vehicle: Klucel (hydroxypropylcellulose) (HPC) 108 % of control | dose: 7.0 mg/kg/injection, schedule: Q01DX005 (ip), vehicle: Klucel (hydroxypropylcellulose) (HPC) 103 % of control | dose: 14.0 mg/kg/injection, schedule: Q01DX005 (ip), vehicle: Klucel (hydroxypropylcellulose) (HPC) 106 % of control | dose: 25.0 mg/kg/injection, schedule: Q01DX005 (ip), vehicle: Klucel (hydroxypropylcellulose) (HPC) 101 % of control | dose: 28.0 mg/kg/injection, schedule: Q01DX005 (ip), vehicle: Klucel (hydroxypropylcellulose) (HPC) 104 % of control | dose: 50.0 mg/kg/injection, schedule: Q01DX005 (ip), vehicle: Klucel (hydroxypropylcellulose) (HPC) 92 % of control | dose: 100.0 mg/kg/injection, schedule: Q01DX005 (ip), vehicle: Klucel (hydroxypropylcellulose) (HPC) 97 % of control

Cc1cc(Cl)ccc1O/C(=C/C(=O)O)C(=O)O
inactive: dose: 60.0 mg/kg/injection, schedule: Q01DX005 (ip), vehicle: Klucel (hydroxypropylcellulose) (HPC) 100 % of control and 98 % of control | dose: 120.0 mg/kg/injection, schedule: Q01DX005 (ip), vehicle: Klucel (hydroxypropylcellulose) (HPC) 100 % of control and 95 % of control | dose: 240.0 mg/kg/injection, schedule: Q01DX005 (ip), vehicle: Klucel (hydroxypropylcellulose) (HPC) 101 % of control and 87 % of control

CNNCCCCC(=O)NC(C)C
inactive: dose: 25.0 mg/kg/injection, schedule: Q01DX009 (ip), vehicle: Klucel (hydroxypropylcellulose) (HPC) 97 % of control | dose: 50.0 mg/kg/injection, schedule: Q01DX009 (ip), vehicle: Klucel (hydroxypropylcellulose) (HPC) 98 % of control | dose: 100.0 mg/kg/injection, schedule: Q01DX009 (ip), vehicle: Klucel (hydroxypropylcellulose) (HPC) 97 % of control

CC(=O)Nc1ncnc2c(C3OC(COC(C)=O)C(OC(C)=O)C3OC(C)=O)[nH]nc12 (configuration not stated)
inactive: [1] 105 % of control | [2] 95 % of control

CCCCNC(=S)N/N=C/c1ccccn1
inactive: dose: 25.0 mg/kg/injection, schedule: Q01DX009 (ip), vehicle: saline with Tween-80 101 % of control | [3] 94 % of control | [4] 111 % of control

CCCCCCCCCCCCCCCCCC(=O)NN
inactive: dose: 100.0 mg/kg/injection, schedule: Q04DX003 (ip), vehicle: saline with Tween-80 94 % of control | dose: 200.0 mg/kg/injection, schedule: Q04DX003 (ip), vehicle: saline with Tween-80 87 % of control

CC1OS(=O)(=O)CS(=O)(=O)OC1C (configuration not stated)
inactive: [1] 101 % of control | [2] 101 % of control

O=C[C@@H](CO)O[C@H](C=O)c1c[nH]c(=O)[nH]c1=O
active: dose: 12.5 mg/kg/injection, schedule: Q01DX005 (ip), vehicle: saline 155 % of control | dose: 25.0 mg/kg/injection, schedule: Q01DX005 (ip), vehicle: saline 156 % of control and 158 % of control | dose: 40.0 mg/kg/injection, schedule: Q01DX005 (ip), vehicle: saline 155 % of control | dose: 50.0 mg/kg/injection, schedule: Q01DX005 (ip), vehicle: saline 173 % of control and 190 % of control | dose: 80.0 mg/kg/injection, schedule: Q01DX005 (ip), vehicle: saline 186 % of control and 245 % of control | dose: 100.0 mg/kg/injection, schedule: Q04DX003 (ip), vehicle: saline 185 % of control
inactive: dose: 5.0 mg/kg/injection, schedule: Q01DX005 (ip), vehicle: saline 118 % of control | dose: 12.5 mg/kg/injection, schedule: Q04DX003 (ip), vehicle: saline 124 % of control

CC(C(=O)O)c1ccc2oc(-c3ccc(Cl)cc3)nc2c1 (configuration not stated)
inactive: dose: 50.0 mg/kg/injection, schedule: Q01DX009 (ip), vehicle: suspension in saline 104 % of control | dose: 100.0 mg/kg/injection, schedule: Q01DX009 (ip), vehicle: suspension in saline 100 % of control | dose: 200.0 mg/kg/injection, schedule: Q01DX009 (ip), vehicle: suspension in saline 100 % of control

OCc1cnccc1Cl
inactive: dose: 60.0 mg/kg/injection, schedule: Q01DX005 (ip), vehicle: saline 95 % of control | dose: 120.0 mg/kg/injection, schedule: Q01DX005 (ip), vehicle: saline 100 % of control

O=S(=O)(c1cccc(C(F)(F)F)c1)N(CCCCN(S(=O)(=O)c1cccc(C(F)(F)F)c1)S(=O)(=O)c1cccc(C(F)(F)F)c1)S(=O)(=O)c1cccc(C(F)(F)F)c1
inactive: [1] 97 % of control | [2] 93 % of control | [5] 90 % of control

Cc1cccc(C)c1NC(=O)Nc1cccc(C#N)c1
inactive: dose: 15.0 mg/kg/injection, schedule: Q01DX005 (ip), vehicle: saline with Tween-80 91 % of control | dose: 30.0 mg/kg/injection, schedule: Q01DX005 (ip), vehicle: saline with Tween-80 95 % of control | [1] 91 % of control | [5] 89 % of control

CCCCN1C(=O)/C(=C/c2ccc(OC)c(OC)c2OC)SC1=S
inactive: [3] 93 % of control | [4] 92 % of control | [6] 94 % of control

COC1=CC(=O)C(Cc2ccc(OC)cc2)=CC1=O
inactive: dose: 2.5 mg/kg/injection, schedule: Q01DX009 (ip), vehicle: saline with Tween-80 100 % of control | dose: 5.0 mg/kg/injection, schedule: Q01DX009 (ip), vehicle: saline with Tween-80 100 % of control | dose: 10.0 mg/kg/injection, schedule: Q01DX009 (ip), vehicle: saline with Tween-80 100 % of control

COc1cccc2c1C(=O)c1c(O)c3c(c(O)c1C2=O)C[C@@](O)(C(=O)CO)C[C@@H]3OC1CC(OC(C)=O)C(OC(C)=O)C(C)O1 (some centres not stated)
active: dose: 12.5 mg/kg/injection, schedule: Q04DX003 (ip), vehicle: distilled water + Tween-80 163 % of control | dose: 25.0 mg/kg/injection, schedule: Q04DX003 (ip), vehicle: distilled water + Tween-80 185 % of control and 192 % of control | dose: 50.0 mg/kg/injection, schedule: Q04DX003 (ip), vehicle: distilled water + Tween-80 211 % of control and 269 % of control
inactive: dose: 3.13 mg/kg/injection, schedule: Q04DX003 (ip), vehicle: distilled water + Tween-80 99 % of control and 123 % of control | dose: 6.25 mg/kg/injection, schedule: Q04DX003 (ip), vehicle: distilled water + Tween-80 123 % of control

CCN(CC)CCCNc1c(OC)cc(C)c2sc3ccccc3c(=O)c12
inactive: dose: 50.0 mg/kg/injection, schedule: Q01DX009 (ip), vehicle: saline 102 % of control

COc1ccc(CC(=O)Cc2ccc(OC)c(OC)c2)cc1OC
inactive: [3] 101 % of control | [4] 111 % of control | [6] 95 % of control | dose: 400.0 mg/kg/injection, schedule: Q01DX009 (ip), vehicle: saline with Tween-80 99 % of control | dose: 600.0 mg/kg/injection, schedule: Q01DX009 (ip), vehicle: saline with Tween-80 87 % of control

CCCCCCCC(=O)C1C(c2ccc(C(C)C)cc2)CC(=O)C(CCCCCC)C1c1ccc(C(C)C)cc1 (configuration not stated)
inactive: dose: 6.25 mg/kg/injection, schedule: Q01DX005 (ip), vehicle: saline with Tween-80 91 % of control | dose: 12.5 mg/kg/injection, schedule: Q01DX005 (ip), vehicle: saline with Tween-80 89 % of control | dose: 25.0 mg/kg/injection, schedule: Q01DX005 (ip), vehicle: saline with Tween-80 99 % of control | dose: 100.0 mg/kg/injection, schedule: Q01DX005 (ip), vehicle: saline with Tween-80 93 % of control | dose: 200.0 mg/kg/injection, schedule: Q01DX005 (ip), vehicle: saline with Tween-80 98 % of control

CCOc1nc(N)nc(C)c1N=Nc1ccc(C)cc1
inactive: dose: 60.0 mg/kg/injection, schedule: Q01DX005 (ip), vehicle: Klucel + Tween-80 110 % of control | dose: 120.0 mg/kg/injection, schedule: Q01DX005 (ip), vehicle: Klucel + Tween-80 116 % of control | dose: 240.0 mg/kg/injection, schedule: Q01DX005 (ip), vehicle: Klucel + Tween-80 113 % of control
